Measured values published in the supplement of paper PMC11061612.

Tests used:
Assay in all cases: combination Emax (second highest fraction inhibited in the dose matrix, 72 h); higher = more inhibition; extreme values may be limits of the assay
[1] = tested on: MM1S (Plasma Cell Myeloma)
Summary of the method: (§1)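 Cell lines grown in DMEM/F12 or RPMI with 10% FBS were plated in 1536-well plates and held 24 hours at 37°C, 5% CO2 before 72 hours of exposure to two-drug dose matrices, with DMSO typically at 0.2%. CellTiter-Glo 2.0 luminescence gave viability, which was converted to inhibition. Vehicle wells were set to 0 and blank wells to 1. Combination Emax is the second-highest inhibition in the matrix, and Bliss excess is the observed combination effect minus the expected EA + EB − EA·EB, where EA and EB are the single-agent effects.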

[2] = tested on: AM-38 (Glioblastoma)
Summary of the method: as §1

[3] = tested on: SiHa (Cervical Carcinoma)
Summary of the method: as §1

[4] = tested on: COR-L88 (Small Cell Lung Carcinoma)
Summary of the method: as §1

[5] = tested on: KALS-1 (Glioblastoma)
Summary of the method: as §1

[6] = tested on: Raji (Burkitt's Lymphoma)
Summary of the method: as §1

[7] = tested on: P32-ISH (Burkitt's Lymphoma)
Summary of the method: as §1

[8] = tested on: CL-11 (Colorectal Carcinoma)
Summary of the method: as §1

[9] = tested on: PL4 (Pancreatic Carcinoma)
Summary of the method: as §1

[10] = tested on: TUR (Acute Myeloid Leukemia)
Summary of the method: as §1

[11] = tested on: SUP-M2 (T-Cell Non-Hodgkin's Lymphoma)
Summary of the method: as §1

[12] = tested on: SNU-C2B (Colorectal Carcinoma)
Summary of the method: as §1

[13] = tested on: RCC-JW (Kidney Carcinoma)
Summary of the method: as §1

[14] = tested on: T47D (Breast Carcinoma)
Summary of the method: as §1

[15] = tested on: OAW-28 (Ovarian Carcinoma)
Summary of the method: as §1

[16] = tested on: LS-1034 (Colorectal Carcinoma)
Summary of the method: as §1

[17] = tested on: UACC-257 (Melanoma)
Summary of the method: as §1

[18] = tested on: MS-1 (Small Cell Lung Carcinoma)
Summary of the method: as §1

[19] = tested on: IST-MEL1 (Melanoma)
Summary of the method: as §1

[20] = tested on: NCI-H3118 (Head and Neck Carcinoma)
Summary of the method: as §1

Structure (SMILES): COc1nnc2ccc(N3CCC(c4ccc(OCCN5CCN(C)C(=O)[C@H]5C)cc4)CC3)nn12 [AZD5153] + CC1(C)CCC(CN2CCN(c3ccc(C(=O)NS(=O)(=O)c4ccc(NCC5CCOCC5)c([N+](=O)[O-])c4)c(Oc4cnc5[nH]ccc5c4)c3)CC2)=C(c2ccc(Cl)cc2)C1 [Venetoclax] (first compound max 1 µM, 7x7, partner max 1 µM)
- combination Emax [1]: 0.611
- combination Emax [2]: 0.232
- combination Emax [3]: 0.505
- combination Emax [4]: 0.348
- combination Emax [5]: 0.616
- combination Emax [6]: 0.62
- combination Emax [7]: 0.701
- combination Emax [8]: 0.677
- combination Emax [9]: 0.572
- combination Emax [10]: 0.458
- combination Emax [11]: 0.965
- combination Emax [12]: 0.545
- combination Emax [13]: 0.3
- combination Emax [14]: 0.483
- combination Emax [15]: 0.352
- combination Emax [16]: 0.538
- combination Emax [17]: 0.305
- combination Emax [18]: 0.906
- combination Emax [19]: 0.14
- combination Emax [20]: 0.568

Structure (SMILES): COc1nnc2ccc(N3CCC(c4ccc(OCCN5CCN(C)C(=O)[C@H]5C)cc4)CC3)nn12 [AZD5153] + CCN(CCO)CCCOc1ccc2c(Nc3cc(CC(=O)Nc4cccc(F)c4)[nH]n3)ncnc2c1 [AZD2811] (first compound max 1 µM, 7x7, partner max 1 µM)
- combination Emax [1]: 0.635
- combination Emax [2]: 0.433
- combination Emax [3]: 0.571
- combination Emax [4]: 0.237
- combination Emax [5]: 0.606
- combination Emax [6]: 0.558
- combination Emax [7]: 0.873
- combination Emax [8]: 0.677
- combination Emax [9]: 0.53
- combination Emax [10]: 0.827
- combination Emax [11]: 0.994
- combination Emax [12]: 0.581
- combination Emax [13]: 0.3
- combination Emax [14]: 0.494
- combination Emax [15]: 0.431
- combination Emax [16]: 0.535
- combination Emax [17]: 0.372
- combination Emax [18]: 0.854
- combination Emax [19]: 0.289
- combination Emax [20]: 0.55

Structure (SMILES): COc1nnc2ccc(N3CCC(c4ccc(OCCN5CCN(C)C(=O)[C@H]5C)cc4)CC3)nn12 [AZD5153] + C[C@@H]1COCCN1C2=NC(=NC(=C2)C3(CC3)[S@](=N)(=O)C)C4=C5C=CNC5=NC=C4 [AZD6738] (first compound max 1 µM, 7x7, partner max 10 µM)
- combination Emax [1]: 0.778
- combination Emax [2]: 0.823
- combination Emax [3]: 0.639
- combination Emax [4]: 0.548
- combination Emax [5]: 0.812
- combination Emax [6]: 0.875
- combination Emax [7]: 0.957
- combination Emax [8]: 0.833
- combination Emax [9]: 0.756
- combination Emax [10]: 0.984
- combination Emax [11]: 1
- combination Emax [12]: 0.658
- combination Emax [13]: 0.527
- combination Emax [14]: 0.637
- combination Emax [15]: 0.851
- combination Emax [16]: 0.758
- combination Emax [17]: 0.394
- combination Emax [18]: 1
- combination Emax [19]: 0.789
- combination Emax [20]: 0.61

Structure (SMILES): COc1nnc2ccc(N3CCC(c4ccc(OCCN5CCN(C)C(=O)[C@H]5C)cc4)CC3)nn12 [AZD5153] + Cc1c2c(nn1C)CSCc1cc(n(C)n1)CSc1cc(c3ccccc3c1)OCCCc1c(C(=O)O)n(C)c3c-2c(Cl)ccc13 [AZD5991] (first compound max 1 µM, 7x7, partner max 1 µM)
- combination Emax [1]: 1
- combination Emax [2]: 0.295
- combination Emax [3]: 0.666
- combination Emax [4]: 0.807
- combination Emax [5]: 0.814
- combination Emax [6]: 0.896
- combination Emax [7]: 1
- combination Emax [8]: 0.768
- combination Emax [9]: 0.63
- combination Emax [10]: 0.998
- combination Emax [11]: 1
- combination Emax [12]: 0.568
- combination Emax [13]: 0.3
- combination Emax [14]: 0.571
- combination Emax [15]: 0.666
- combination Emax [16]: 0.491
- combination Emax [17]: 0.501
- combination Emax [18]: 0.961
- combination Emax [19]: 0.242
- combination Emax [20]: 0.678

Structure (SMILES): COc1nnc2ccc(N3CCC(c4ccc(OCCN5CCN(C)C(=O)[C@H]5C)cc4)CC3)nn12 [AZD5153] + Cn1cnc2c(F)c(Nc3ccc(Br)cc3Cl)c(C(=O)NOCCO)cc21 [Selumetinib] (first compound max 1 µM, 7x7, partner max 10 µM)
- combination Emax [1]: 0.947
- combination Emax [2]: 0.659
- combination Emax [3]: 0.628
- combination Emax [4]: 0.247
- combination Emax [5]: 0.738
- combination Emax [6]: 0.535
- combination Emax [7]: 0.65
- combination Emax [8]: 0.967
- combination Emax [9]: 0.851
- combination Emax [10]: 0.744
- combination Emax [11]: 1
- combination Emax [12]: 0.573
- combination Emax [13]: 0.3
- combination Emax [14]: 0.549
- combination Emax [15]: 0.498
- combination Emax [16]: 0.814
- combination Emax [17]: 0.825
- combination Emax [18]: 0.817
- combination Emax [19]: 0.389
- combination Emax [20]: 0.63

Structure (SMILES): Cc1c2c(nn1C)CSCc1cc(n(C)n1)CSc1cc(c3ccccc3c1)OCCCc1c(C(=O)O)n(C)c3c-2c(Cl)ccc13 [AZD5991] + C1CN(CCC1(C(=O)N[C@@H](CCO)C2=CC=C(C=C2)Cl)N)C3=NC=NC4=C3C=CN4 [Capivasertib] (first compound max 1 µM, 7x7, partner max 3 µM)
- combination Emax [1]: 1
- combination Emax [2]: 0.494
- combination Emax [3]: 0.23
- combination Emax [4]: 0.259
- combination Emax [5]: 0.469
- combination Emax [6]: 0.692
- combination Emax [7]: 1
- combination Emax [8]: 0.133
- combination Emax [9]: 0.339
- combination Emax [10]: 0.913
- combination Emax [11]: 1
- combination Emax [12]: 0.135
- combination Emax [13]: 0.208
- combination Emax [14]: 0.579
- combination Emax [15]: 0.224
- combination Emax [16]: 0.22
- combination Emax [17]: 0.252
- combination Emax [18]: 0.524
- combination Emax [19]: 0.212
- combination Emax [20]: 0.245
